Data on one compound can be found in patent publication US20120046321A1, “METHODS OF TREATING ATRIAL FIBRILLATION WITH P38 INHIBITOR COMPOUNDS” (INTERMUNE, INC., priority 2005, published 2012).

Experiment [1] concerns canines with ventricular tachypacing (VTP)-induced congestive heart failure (CHF). The experiment is described as follows: AF inducibility in open-chest EP study (single extrastimulus and burst pacing). Format: in vivo, canine. From the text:
Briefly, 15 adult mongrel canines (weight 20 to 32 kgs) were divided into 3 groups (n=5 in each group) as follows: Group 1: Normal; Group 2: CHF canines not treated with PFD (or CHF); and Group 3: CHF canines treated with PFD (or CHF+PFD). […] The CHF and CHF+PFD canines underwent placement of a permanent single-chamber pacemaker with the pacing lead positioned in the right ventricular apex followed by radiofrequency catheter ablation of the AV junction to create complete heart block. Canines in the CHF and CHF+PFD groups underwent 3 weeks of VTP at a rate of 220 bpm. […] Effective refractory periods (ERPs) were measured at 12 atrial sites (6 in LA, 6 in RA) using the single extrastimulus protocol (S1S2) at an 8-beat drive train basic cycle lengths (BCLs) of 200, 300, and 400 ms. During stimulation of the contralateral Bachmann's bundle, conduction velocity (CV) was calculated between pairs of plaque electrodes perpendicular to the activation wavefront with a custom-written software. […] Two measures were derived to quantify conduction heterogeneity: 1) absolute conduction heterogeneity, defined as P95-P5 (P95-5), and 2) conduction heterogeneity index, defined as the absolute conduction heterogeneity normalized by the median phase, or P95-5/P50. […]

Experiment [2] concerns total c-Jun N-terminal kinase (JNK). The experiment is described as follows: Western blot of atrial tissue. Format: in vivo, canine. The note with it: CHF+PFD vs CHF. As to the method: (§1) Expression of MAPks in atrial tissue was evaluated using Western Blot analysis. Briefly, atrial tissue specimen containing an equal amount of total protein (10 μg) was electrophoresed on a 4-20% Tris-glycine gel and then transferred onto a nitrocellulose filter. Non-specific binding sites were blocked with 4% BSA, and the filter was incubated with diluted antibody and a matched secondary antibody (all antibodies were obtained from Chemicon, Temecular, Calif.). Protein bands were analyzed with an enhanced chemiluminescence detection method using horseradish peroxidase, based on the recommendations from the manufacturer (NEN Life Science, Boston, Mass.).
Background: A western blot detects proteins with antibodies after separation by electrophoresis.

Experiment [3] has as its system total extracellular signal-regulated protein kinase (ERK). The experiment is described as follows: Western blot of atrial tissue. The format is in vivo, canine. The conditions noted are these: CHF+PFD vs CHF. The method, then: as §1
The subject of the next experiment is total p-38. The experiment is described as follows: Western blot of atrial tissue. The format is in vivo, canine. The conditions noted are these: CHF+PFD vs CHF. As to the method: as §1
In experiment [4] the test system is matrix metalloproteinase (MMP)-9. The experiment is described as follows: Western blot of atrial tissue. Format: in vivo, canine. The conditions noted are these: active form 88 kDa, CHF+PFD vs CHF.
The subject of experiment [5] is tissue inhibitor of metalloproteinase (TIMP)-4. Put plainly: Western blot of atrial tissue. Format: in vivo, canine. The note with it: 3 groups.
The test system of a further experiment is IL-6. The experiment is described as follows: Western blot of atrial tissue. The note with it: 3 groups. The format is in vivo, canine.
For experiment [6], the system named is canines with heart failure produced by 4 weeks of rapid ventricular pacing. The experiment is described as follows: AF inducibility after PFD started once 4 weeks of rapid ventricular pacing ended (Example 7). Format: in vivo, canine. The conditions noted are these: two canines, pacemakers turned off at 4 weeks, then PFD for 3 weeks. The method, then:
AF inducibility was assessed by both the single-extrastimulus protocol (as above) and a burst pacing protocol which consisted of pacing at one LA site and one RA site. A total of 16 burst stimulations were carried out for each animal with each atrial site receiving 8 burst […] (4 for a duration of 6 seconds and 4 for 12 seconds) at a CL of 50 ms and a stimulus output of 0.5 V+twice diastolic threshold. AF was considered sustained if the induced episode lasted >[…] at which time the longest AF duration was taken as 3600 seconds and used for analysis. Two adult mongrel canines (weight 20 to 32 kgs) with heart failure produced by 4 weeks of rapid ventricular pacing as described above were evaluated for AF inducibility following PFD treatment. Briefly, pacemakers were turned off at 4 weeks and PFD started for 3 weeks. A follow-up study for AF inducibility after 3 weeks of PFD treatment was performed as described above.

A further experiment deals with TGF-β1. The conditions noted are these: cited from earlier work.

SMILES strings stand for the structures. Entries after “also recorded” stand apart in the source; their conditions may differ. Like-named read-outs stand apart in the source and are kept apart here.

As to `Cc1ccc(=O)n(-c2ccccc2)c1` [PFD, 5-methyl-1-phenyl-2-(1H)-pyridone], the “Mean AF duration” value in experiment [1] (CHF+PFD, p<0.009 vs. CHF (1488±698 secs), Normal 16±25 secs) is 12 ± 13 s. Besides, in experiment [1] (open-chest experiments, untreated CHF 4/5, p<0.007), the “Sustained AF” value was “only observed in the untreated CHF canines”. In experiment [2], the “Expression of total JNK (c-Jun)” value is on record as “downregulation; also recorded: reduced”. In experiment [3], the “Expression of total ERK” value is “downregulation; also recorded: reduced”. For the same compound, the “Expression of total p-38” value with total p-38 is given as “downregulation; also recorded: reduced”. In addition, the “Expression of MMP-9” value in [4] was “downregulation; also recorded: reduced”. The “Expression of TIMP-4” value in experiment [5] was “unchanged; also recorded: not markedly changed”. The “Expression of IL-6” value in the experiment with IL-6 was “unchanged; also recorded: not markedly different”. For the same compound, the “AF inducibility after 3 weeks of PFD treatment” value in experiment [6] was “AF was not found”. The “Expression of TGF-β1” value in the experiment on TGF-β1 (animal models of lung fibrosis (Iyer et al.)), in the experiment with TGF-β1 (hepatic fibrosis (Garcia et al.)) and with TGF-β1 (renal tubulointerstitial fibrosis (Shihab et al.)) was “significantly reduce” throughout.
